In patent US20210253575A1, “PYRROLIDINE AMINE COMPOUNDS FOR THE TREATMENT OF AUTOIMMUNE DISEASE” (Hoffmann-La Roche Inc., priority 2018, published 2021):

What follows are molecules tested against T1, human TLR9 (Homo sapiens, UniProt Q9NR96) (assay: HEK293-Blue-hTLR-9 cells assay (SEAP reporter, ODN2006 stimulation)). Details: HEK293-Blue-hTLR9 cells, ODN2006 ligand, 20 hrs incubation.
T1 sequence (Q9NR96 26-1032): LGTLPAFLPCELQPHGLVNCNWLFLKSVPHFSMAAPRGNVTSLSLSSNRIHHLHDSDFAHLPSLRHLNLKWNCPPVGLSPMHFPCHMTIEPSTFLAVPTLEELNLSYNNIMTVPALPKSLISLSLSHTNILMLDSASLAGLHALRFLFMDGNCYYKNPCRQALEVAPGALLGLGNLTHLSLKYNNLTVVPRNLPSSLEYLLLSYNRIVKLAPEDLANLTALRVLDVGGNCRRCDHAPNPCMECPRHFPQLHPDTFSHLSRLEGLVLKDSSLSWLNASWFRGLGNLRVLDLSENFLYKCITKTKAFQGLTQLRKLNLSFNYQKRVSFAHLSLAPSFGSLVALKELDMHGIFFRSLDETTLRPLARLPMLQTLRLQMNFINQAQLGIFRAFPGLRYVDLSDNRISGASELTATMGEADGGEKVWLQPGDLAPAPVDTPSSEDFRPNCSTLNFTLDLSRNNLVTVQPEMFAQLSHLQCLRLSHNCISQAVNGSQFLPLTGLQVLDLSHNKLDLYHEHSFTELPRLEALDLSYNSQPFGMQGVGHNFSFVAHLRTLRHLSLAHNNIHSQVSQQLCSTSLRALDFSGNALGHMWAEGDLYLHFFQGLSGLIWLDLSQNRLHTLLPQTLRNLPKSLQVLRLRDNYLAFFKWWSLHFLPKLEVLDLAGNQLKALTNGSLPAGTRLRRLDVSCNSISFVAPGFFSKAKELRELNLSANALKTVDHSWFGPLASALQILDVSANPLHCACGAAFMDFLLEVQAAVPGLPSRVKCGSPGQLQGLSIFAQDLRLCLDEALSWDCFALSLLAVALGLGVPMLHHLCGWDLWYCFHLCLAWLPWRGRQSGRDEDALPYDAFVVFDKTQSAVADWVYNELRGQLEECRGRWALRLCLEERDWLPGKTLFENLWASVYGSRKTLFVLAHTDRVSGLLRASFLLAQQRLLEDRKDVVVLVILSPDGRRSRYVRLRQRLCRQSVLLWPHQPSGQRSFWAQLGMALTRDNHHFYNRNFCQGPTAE
Type: cell-based
Procedure: The following tests were carried out in order to determine the activity of the compounds of formula (I) in HEK293-Blue-hTLR-7/8/9 cells assay.
HEK293-Blue-hTLR-9 Cells Assay:
A stable HEK293-Blue-hTLR-9 cell line was purchased from InvivoGen (Cat. #: hkb-htlr9, San Diego, Calif., USA). These cells were originally designed for studying the stimulation of human TLR9 by monitoring the activation of NF-κB. A SEAP (secreted embryonic alkaline phosphatase) reporter gene was placed under the control of the IFN-β minimal promoter fused to five NF-κB and AP-1-binding sites. The SEAP was induced by activating NF-κB and AP-1 via stimulating HEK-Blue hTLR9 cells with TLR9 ligands. Therefore the reporter expression was declined by TLR9 antagonist under the stimulation of a ligand, such as ODN2006 (Cat. #: tlrl-2006-1, Invivogen, San Diego, Calif., USA), for incubation of 20 hrs. The cell culture supernatant SEAP reporter activity was determined using QUANTI-Blue™ kit (Cat. #: rep-qb1, Invivogen, San Diego, Calif., USA) at a wavelength of 640 nm, a detection medium that turns purple or blue in the presence of alkaline phosphatase.
HEK293-Blue-hTLR9 cells were incubated at a density of 250,000˜450,000 cells/mL in a volume of 170 μL in a 96-well plate in Dulbecco's Modified Eagle's medium (DMEM) containing 4.5 g/L glucose, 50 U/mL penicillin, […], […], 2 mM L-glutamine, 10% (v/v) heat-inactivated fetal bovine serum with addition of 20 μL test compound in a serial dilution in the presence of final DMSO at 1% and 10 μL of 20 uM ODN2006 in above DMEM, perform incubation under 37° C. in a CO2incubator for 20 hrs. Then 20 μL of the superatant from each well was incubated with 180 μL Quanti-blue substrate solution at 37° C. for 2 hrs and the absorbance was read at 620˜655 nm using a spectrophotometer. The signalling pathway that TLR9 activation leads to downstream NF-κB activation has been widely accepted, and therefore similar reporter assay was modified for evaluating TLR9 antagonist.

SMILES | IC50
N#Cc1ccc(N2C[C@H](CN3CC4CCC3CN4)[C@@H](C(F)(F)F)C2)c2nccnc12 (stereo partly drawn) [Example 77, 8-[(3S,4R)-3-(2,5-diazabicyclo[2.2.2]octan-2-ylmethyl)-4-(trifluoromethyl)pyrrolidin-1-yl]quinoxaline-5-carbonitrile] | 2340 nM
CC[C@@H]1CN(c2ccc(C#N)c3ncccc23)C[C@H]1CN1CCC2(CCNCC2)CC1 (relative stereo) [Example 15, 5-[Trans-3-(3,9-diazaspiro[5.5]undecan-3-ylmethyl)-4-ethyl-pyrrolidin-1-yl]quinoline-8-carbonitrile] | 32 nM
CC1(N)CCN(CC2CN(c3ccc(C#N)c4nccnc34)CC23CC3)CC1 (centres unmarked) [Example 7, 8-[7-[(4-Amino-4-methyl-1-piperidyl)methyl]-5-azaspiro[2.4]heptan-5-yl]quinoxaline-5-carbonitrile] | 77 nM
N#Cc1ccc(N2CC(CN3CCC(N)CC3)C3(CC3)C2)c2nccnc12 (single isomer, unassigned) [Example 68A, 8-[7-[(4-Amino-1-piperidyl)methyl]-5-azaspiro[2.4]heptan-5-yl]quinoxaline-5-carbonitrile] | 71 nM
N#Cc1ccc(N2C[C@H](CN3CCC(N4CCCCCC4)CC3)[C@@H](C(F)(F)F)C2)c2nccnc12 [Example 62, 8-[(3S,4R)-3-[[4-(Azepan-1-yl)-1-piperidyl]methyl]-4-(trifluoromethyl)pyrrolidin-1-yl]quinoxaline-5-carbonitrile] | 409 nM
C[C@@H]1CN(c2ccc(C(F)(F)F)c3nccnc23)C[C@H]1CN1CCC(N2CCCCC2)CC1 (relative stereo) [Example 33, 5-[Trans-3-methyl-4-[[4-(1-piperidyl)-1-piperidyl]methyl]pyrrolidin-1-yl]-8-(trifluoromethyl)quinoxaline] | 863 nM
N#Cc1ccc(N2C[C@H](CN3CCC(N4CCCCC4)CC3)[C@@H](C(F)(F)F)C2)c2nccnc12 [Example 61, 8-[(3S,4R)-3-[[4-(1-Piperidyl)-1-piperidyl]methyl]-4-(trifluoromethyl)pyrrolidin-1-yl]quinoxaline-5-carbonitrile] | 438 nM
N#Cc1ccc(N2C[C@H](CN3CCC4(CCCNC4)CC3)[C@@H](C(F)(F)F)C2)c2nccnc12 [Example 45, 8-[(3S,4R)-3-(2,9-diazaspiro[5.5]undecan-9-ylmethyl)-4-(trifluoromethyl)pyrrolidin-1-yl]quinoxaline-5-carbonitrile] | 224 nM
N#Cc1ccc(N2C[C@H](CN3CCCC4(CCNCC4)C3)[C@@H](C(F)(F)F)C2)c2cccnc12 [Example 57, 5-[(3S,4R)-3-(2,9-Diazaspiro[5.5]undecan-2-ylmethyl)-4-(trifluoromethyl)pyrrolidin-1-yl]quinoline-8-carbonitrile] | 331 nM
N#Cc1ccc(N2C[C@H](CN3CCNCC3)[C@@H](C(F)(F)F)C2)c2nccnc12 [Example 59, 8-[(3S,4R)-3-(Piperazin-1-ylmethyl)-4-(trifluoromethyl)pyrrolidin-1-yl]quinoxaline-5-carbonitrile] | 2700 nM
C[C@H]1CN(c2ccc(C#N)c3nccnc23)C[C@@H]1CN1CCC2(CCNC2)C1 (stereo partly drawn) [Example 30, 8-[(3S,4R)-3-(2,7-diazaspiro[4.4]nonan-2-ylmethyl)-4-methyl-pyrrolidin-1-yl]quinoxaline-5-carbonitrile] | 307 nM
CN(C)C1CCN(C[C@H]2CN(c3ccc(C#N)c4nccnc34)C[C@@H]2C(F)(F)F)CC1 [Example 80, 8-[(3S,4R)-3-[[4-(dimethylamino)-1-piperidyl]methyl]-4-(trifluoromethyl)pyrrolidin-1-yl]quinoxaline-5-carbonitrile] | 706 nM
N#Cc1ccc(N2C[C@H](CN3CCC(CN)CC3)[C@@H](C(F)(F)F)C2)c2nccnc12 [Example 74, 8-[(3S,4R)-3-[[4-(aminomethyl)-1-piperidyl]methyl]-4-(trifluoromethyl)pyrrolidin-1-yl]quinoxaline-5-carbonitrile] | 325 nM
N#Cc1ccc(N2C[C@H](CN3CCC(N)C(F)(F)C3)[C@@H](C(F)(F)F)C2)c2nccnc12 (stereo partly drawn) [Example 64, 8-[(3S,4R)-3-[(4-amino-3,3-difluoro-1-piperidyl)methyl]-4-(trifluoromethyl)pyrrolidin-1-yl]quinoxaline-5-carbonitrile] | 23100 nM
N#Cc1ccc(N2CC(CN3CCC(N4CCOCC4)CC3)C3(CC3)C2)c2nccnc12 (centres unmarked) [Example 58, 8-[7-[(4-Morpholino-1-piperidyl)methyl]-5-azaspiro[2.4]heptan-5-yl]quinoxaline-5-carbonitrile] | 605 nM
N#Cc1ccc(N2C[C@H](CN3CC4CNCC4C3)[C@@H](C(F)(F)F)C2)c2nccnc12 (stereo partly drawn) [Example 76, 8-[(3S,4R)-3-(2,3,3a,4,6,6a-hexahydro-1H-pyrrolo[3,4-c]pyrrol-5-ylmethyl)-4-(trifluoromethyl)pyrrolidin-1-yl]quinoxaline-5-carbonitrile] | 485 nM
N#Cc1ccc(N2C[C@H](CN3CCC(N)CC3)[C@@H](C(F)(F)F)C2)c2nccnc12 [Example 26, 8-[(3S,4R)-3-[(4-Amino-1-piperidyl)methyl]-4-(trifluoromethyl)pyrrolidin-1-yl]quinoxaline-5-carbonitrile] | 258 nM
N#Cc1ccc(N2CC(CN3CC4(CCCNC4)C3)C3(CC3)C2)c2nccnc12 (centres unmarked) [Example 24, 8-[7-(2,8-Diazaspiro[3.5]nonan-2-ylmethyl)-5-azaspiro[2.4]heptan-5-yl]quinoxaline-5-carbonitrile] | 82 nM
CC[C@@H]1CN(c2ccc(C#N)c3ncccc23)C[C@H]1CN1CCC2(CCNC2)C1 (relative stereo) [Example 29, 5-[Trans-3-(2,7-diazaspiro[4.4]nonan-2-ylmethyl)-4-ethyl-pyrrolidin-1-yl]quinoline-8-carbonitrile] | 56 nM
FC(F)(F)c1ccc(N2CC(CN3C[C@H]4CNC[C@H]4C3)C3(CC3)C2)c2nccnc12 (stereo partly drawn) [Example 41, 5-[7-[[(3aR,6aS)-2,3,3a,4,6,6a-hexahydro-H-pyrrolo[3,4-c]pyrrol-5-yl]methyl]-5-azaspiro[2.4]heptan-5-yl]-8-(trifluoromethyl)quinoxaline] | 1200 nM
N#Cc1ccc(N2C[C@H](CN3CCCC(F)(CN)C3)[C@@H](C(F)(F)F)C2)c2nccnc12 (stereo partly drawn) [Example 78, 8-[(3S,4R)-3-[[3-(aminomethyl)-3-fluoro-1-piperidyl]methyl]-4-(trifluoromethyl)pyrrolidin-1-yl]quinoxaline-5-carbonitrile] | 1920 nM
N#Cc1ccc(N2CC(CN3CCOC4(CCNCC4)C3)C3(CC3)C2)c2nccnc12 (centres unmarked) [Example 67, 8-[7-(1-Oxa-4,9-diazaspiro[5.5]undecan-4-ylmethyl)-5-azaspiro[2.4]heptan-5-yl]quinoxaline-5-carbonitrile] | 869 nM
N#Cc1ccc(N2CC(CN3C4CCC3CC(N)C4)C3(CC3)C2)c2nccnc12 (centres unmarked) [Example 25, 8-[7-[(3-Amino-8-azabicyclo[3.2.1]octan-8-yl)methyl]-5-azaspiro[2.4]heptan-5-yl]quinoxaline-5-carbonitrile] | 75 nM
